{"source": "patent US8604061B2", "about": "“2-aminooxazolines as TAAR1 ligands” (Hoffmann-La Roche Inc., priority 2007, dated 2013)", "note": "pKi: −log10 of the molar value."}
{"biological_target": "TAAR1 (Mus musculus, UniProt Q923Y8)", "experiment": "TAAR1 radioligand binding, membranes of stably transfected HEK293 cells (mouse)", "conditions": "not given", "method_in_brief": "(§1)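 Competition binding on membranes from HEK293 cells stably expressing the TAAR1 species ortholog, in HEPES-NaOH pH 7.0 with 10 mM MgCl2 and 2 mM CaCl2, 30 min at 4° C with [3H]-rac-2-(1,2,3,4-tetrahydro-1-naphthyl)-2-imidazoline. Competitors 10 pM–30 μM, duplicates; non-specific binding with 10 μM unlabelled ligand; filtration and scintillation counting.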"}
{"compound": "NC1=NC(c2ccc(Br)cc2F)CO1", "note": "(racemic) [Example 349, (RS)-4-(4-Bromo-2-fluoro-phenyl)-4,5-dihydro-oxazol-2-ylamine]", "pKi": 8.64}
{"compound": "NC1=NC(c2cccc(Br)c2)CO1", "note": "(racemic) [Example 186, (RS)-4-(3-Bromo-phenyl)-4,5-dihydro-oxazol-2-ylamine]", "pKi": 8.35}
{"compound": "COc1ccc(C2COC(N)=N2)cc1C", "note": "(racemic) [Example 35, (RS)-4-(4-Methoxy-3-methyl-phenyl)-4,5-dihydro-oxazol-2-ylamine]", "pKi": 8.48}
{"compound": "NC1=NC(c2ccc(Br)cc2Cl)CO1", "note": "(racemic) [Example 291, (RS)-4-(4-Bromo-2-chloro-phenyl)-4,5-dihydro-oxazol-2-ylamine]", "pKi": 9.10}
{"compound": "NC1=NC(c2cccc(Cl)c2)CO1", "note": "(racemic) [Example 185, (RS)-4-(3-Chloro-phenyl)-4,5-dihydro-oxazol-2-ylamine]", "pKi": 8.30}
{"compound": "NC1=NC(c2cccc3ccccc23)CO1", "note": "(racemic) [Example 34, (RS)-4-Naphthalen-1-yl-4,5-dihydro-oxazol-2-ylamine]", "pKi": 8.96}
{"compound": "NC1=NC(c2ccc(Cl)cc2C2CC2)CO1", "note": "(racemic) [Example 359, (RS)-4-(4-Chloro-2-cyclopropyl-phenyl)-4,5-dihydro-oxazol-2-ylamine]", "pKi": 8.68}
{"compound": "NC1=NC(c2cc(F)ccc2C(F)(F)F)CO1", "note": "(racemic) [Example 249, (RS)-4-(5-Fluoro-2-trifluoromethyl-phenyl)-4,5-dihydro-oxazol-2-ylamine]", "pKi": 8.12}
{"compound": "CC1(c2cc(F)c(Cl)cc2F)COC(N)=N1", "note": "(racemic) [Example 271, (RS)-4-Methyl-4-(4-chloro-2,5-difluoro-phenyl)-4,5-dihydro-oxazol-2-ylamine]", "pKi": 8.89}
{"compound": "NC1=NC(c2ccc(F)cc2C(F)(F)F)CO1", "note": "(racemic) [Example 224, (RS)-4-(4-Fluoro-2-trifluoromethyl-phenyl)-4,5-dihydro-oxazol-2-ylamine]", "pKi": 8.20}
{"compound": "Cc1cc(C2(C)COC(N)=N2)ccc1Cl", "note": "(racemic) [Example 263, (RS)-4-(4-Chloro-3-methyl-phenyl)-4-methyl-4,5-dihydro-oxazol-2-ylamine]", "pKi": 8.64}
{"compound": "NC1=NC(c2cc(Cl)ccc2Cl)CO1", "note": "(racemic) [Example 260, (RS)-4-(2,5-Dichloro-phenyl)-4,5-dihydro-oxazol-2-ylamine]", "pKi": 8.89}
{"biological_target": "TAAR1 (Mus musculus, UniProt Q923Y8)", "experiment": "TAAR1 radioligand binding, membranes of stably transfected HEK293 cells (mouse)", "conditions": "mouse/rat; cell not marked 'rat'; radioligand [3H]-rac-2-(1,2,3,4-tetrahydro-1-naphthyl)-2-imidazoline, 4° C.; read-out: Ki (μM) mouse/rat", "method_in_brief": "as §1", "units": {"Ki": "µM"}}
{"compound": "NC1=N[C@@H](c2ccc(Cl)cc2C2CC2)CO1", "note": "[Example 369, (+)-(S)-4-(4-Chloro-2-cyclopropyl-phenyl)-4,5-dihydro-oxazol-2-ylamine]", "Ki": 0.0009}
{"compound": "NC1=N[C@@H](COc2ccc(F)cc2)CO1", "note": "[Example 213, (S)-4-(4-Fluoro-phenoxymethyl)-4,5-dihydro-oxazol-2-ylamine]", "Ki": 0.003}
{"compound": "NC1=N[C@@H](c2ccc(Br)c(Cl)c2)CO1", "note": "[Example 330, (+)-(S)-4-(4-Bromo-3-chloro-phenyl)-4,5-dihydro-oxazol-2-ylamine]", "Ki": 0.0008}
{"compound": "C[C@]1(CCc2ccc(Cl)cc2Cl)COC(N)=N1", "note": "[Example 304, (S)-4-[2-(2,4-Dichloro-phenyl)-ethyl]-4-methyl-4,5-dihydro-oxazol-2-ylamine]", "Ki": 0.0033}
{"compound": "CCC(C[C@H]1COC(N)=N1)c1ccc(Cl)cc1", "note": "(stereo partly drawn) [Example 162, (S)-4-[2-(4-Chloro-phenyl)-butyl]-4,5-dihydro-oxazol-2-ylamine]", "Ki": 0.0025}
{"compound": "NC1=N[C@@H](c2ccc(F)cc2C(F)(F)F)CO1", "note": "[Example 248, (+)-(S)-4-(4-Fluoro-2-trifluoromethyl-phenyl)-4,5-dihydro-oxazol-2-ylamine]", "Ki": 0.0029}
{"compound": "NC1=N[C@H](CCc2ccc(Cl)c(Cl)c2)CO1", "note": "[Example 124, (R)-4-[2-(3,4-Dichloro-phenyl)-ethyl]-4,5-dihydro-oxazol-2-ylamine]", "Ki": 0.0044}
{"compound": "CC(C[C@H]1COC(N)=N1)c1ccc(C(F)(F)F)cc1", "note": "(stereo partly drawn) [Example 165, (S)-4-[2-(4-Trifluoromethyl-phenyl)-propyl]-4,5-dihydro-oxazol-2-ylamine]", "Ki": 0.0012}
{"compound": "C[C@]1(c2ccc(Br)cc2)COC(N)=N1", "note": "[Example 231, (S)-4-(4-Bromo-phenyl)-4-methyl-4,5-dihydro-oxazol-2-ylamine]", "Ki": 0.0025}
{"compound": "C[C@@]1(c2ccccc2F)COC(N)=N1", "note": "[Example 196, (R)-4-(2-Fluoro-phenyl)-4-methyl-4,5-dihydro-oxazol-2-ylamine]", "Ki": 0.0066}
{"compound": "CCC(C[C@H]1COC(N)=N1)c1cccc(C(F)(F)F)c1", "note": "(stereo partly drawn) [Example 194, (S)-4-[2-(3-Trifluoromethyl-phenyl)-butyl]-4,5-dihydro-oxazol-2-ylamine]", "Ki": 0.0073}
{"compound": "Cc1ccc(CC[C@H]2COC(N)=N2)cc1", "note": "[Example 116, (S)-4-(2-p-Tolyl-ethyl)-4,5-dihydro-oxazol-2-ylamine]", "Ki": 0.0012}
{"compound": "NC1=N[C@@H](CCc2ccccc2C(F)(F)F)CO1", "note": "[Example 110, (S)-4-[2-(2-Trifluoromethyl-phenyl)-ethyl]-4,5-dihydro-oxazol-2-ylamine]", "Ki": 0.0018}
{"compound": "CCC(C[C@H]1COC(N)=N1)c1cc(F)cc(F)c1", "note": "(stereo partly drawn) [Example 203, (S)-4-[2-(3,5-Difluoro-phenyl)-butyl]-4,5-dihydro-oxazol-2-ylamine]", "Ki": 0.0039}
{"compound": "Cc1ccc([C@@]2(C)COC(N)=N2)cc1", "note": "[Example 161, (S)-4-Methyl-4-p-tolyl-4,5-dihydro-oxazol-2-ylamine]", "Ki": 0.0062}
{"compound": "NC1=N[C@@H](c2cc(Cl)ccc2F)CO1", "note": "[Example 190, (+)-(S)-4-(5-Chloro-2-fluoro-phenyl)-4,5-dihydro-oxazol-2-ylamine]", "Ki": 0.0008}
{"compound": "CCC(C[C@H]1COC(N)=N1)c1ccc(F)c(F)c1", "note": "(stereo partly drawn) [Example 211, (S)-4-[2-(3,4-Difluoro-phenyl)-butyl]-4,5-dihydro-oxazol-2-ylamine]", "Ki": 0.0024}
{"compound": "C[C@]1(CCc2ccccc2)COC(N)=N1", "note": "[Example 81 (S), (S)-4-Methyl-4-phenethyl-4,5-dihydro-oxazol-2-ylamine]", "Ki": 0.0064}
{"compound": "NC1=N[C@@H](c2ccc3ccccc3c2)CO1", "note": "[Example 103, (S)-4-Naphthalen-2-yl-4,5-dihydro-oxazol-2-ylamine]", "Ki": 0.0004}
{"compound": "NC1=N[C@@H](c2ccc(Cl)c(Cl)c2)CO1", "note": "[Example 91, (S)-4-(3,4-Dichloro-phenyl)-4,5-dihydro-oxazol-2-ylamine]", "Ki": 0.0006}
{"compound": "NC1=N[C@@H](Cc2ccccc2Cl)CO1", "note": "[Example 60, (S)-4-(2-Chloro-benzyl)-4,5-dihydro-oxazol-2-ylamine]", "Ki": 0.0047}
{"compound": "NC1=N[C@H](c2ccc(Cl)cc2Cl)CO1", "note": "[Example 295, (−)-(R)-4-(2,4-Dichloro-phenyl)-4,5-dihydro-oxazol-2-ylamine]", "Ki": 0.0082}
{"compound": "NC1=N[C@@H](c2ccc(F)c(F)c2)CO1", "note": "[Example 166, (S)-4-(3,4-Difluoro-phenyl)-4,5-dihydro-oxazol-2-ylamine]", "Ki": 0.0047}
{"compound": "CCC(C[C@H]1COC(N)=N1)c1cc(F)cc(Cl)c1", "note": "(stereo partly drawn) [Example 357, (S)-4-[2-(3-Chloro-5-fluoro-phenyl)-butyl]-4,5-dihydro-oxazol-2-ylamine]", "Ki": 0.0068}
{"compound": "NC1=N[C@@H](c2ccccc2Cl)CO1", "note": "[Example 4, (S)-4-(2-Chloro-phenyl)-4,5-dihydro-oxazol-2-ylamine]", "Ki": 0.0012}
{"compound": "C[C@]1(c2ccc(F)c(Cl)c2)COC(N)=N1", "note": "[Example 277, (S)-4-(3-chloro-4-fluoro-phenyl)-4-methyl-4,5-dihydro-oxazol-2-ylamine]", "Ki": 0.0016}
{"compound": "COc1ccc([C@H]2COC(N)=N2)cc1Cl", "note": "[Example 131, (S)-4-(3-Chloro-4-methoxy-phenyl)-4,5-dihydro-oxazol-2-ylamine]", "Ki": 0.0024}
{"compound": "NC1=N[C@@H](CCc2ccc(Cl)c(Cl)c2)CO1", "note": "[Example 127, (S)-4-[2-(3,4-Dichloro-phenyl)-ethyl]-4,5-dihydro-oxazol-2-ylamine]", "Ki": 0.0003}
{"compound": "NC1=N[C@@H](CCc2ccc(F)c(OC(F)(F)F)c2)CO1", "note": "[Example 146, (S)-4-[2-(4-Fluoro-3-trifluoromethoxy-phenyl)-ethyl]-4,5-dihydro-oxazol-2-ylamine]", "Ki": 0.0041}
{"compound": "CCC(C[C@H]1COC(N)=N1)c1ccc(F)cc1", "note": "(stereo partly drawn) [Example 210, (S)-4-[2-(4-Fluoro-phenyl)-butyl]-4,5-dihydro-oxazol-2-ylamine]", "Ki": 0.0014}
{"compound": "C[C@]1(c2cc(F)ccc2F)COC(N)=N1", "note": "[Example 187, (S)-4-(2,5-Difluoro-phenyl)-4-methyl-4,5-dihydro-oxazol-2-ylamine]", "Ki": 0.0021}
{"compound": "NC1=N[C@@H](CC2(c3ccc(Cl)cc3)CC2)CO1", "note": "[Example 257, (S)-4-[1-(4-Chloro-phenyl)-cyclopropylmethyl]-4,5-dihydro-oxazol-2-ylamine]", "Ki": 0.0074}
{"compound": "CCC(C[C@H]1COC(N)=N1)c1ccc(C(F)(F)F)cc1", "note": "(stereo partly drawn) [Example 184, (S)-4-[2-(4-Trifluoromethyl-phenyl)-butyl]-4,5-dihydro-oxazol-2-ylamine]", "Ki": 0.0063}
{"compound": "NC1=N[C@@H](c2cc(F)c(F)c(F)c2)CO1", "note": "[Example 170, (S)-4-(3,4,5-Trifluoro-phenyl)-4,5-dihydro-oxazol-2-ylamine]", "Ki": 0.0011}
{"compound": "NC1=N[C@@H](c2cc(F)cc(F)c2F)CO1", "note": "[Example 118, (S)-4-(2,3,5-Trifluoro-phenyl)-4,5-dihydro-oxazol-2-ylamine]", "Ki": 0.003}
{"compound": "NC1=N[C@@H](c2ccc(Br)cc2C(F)(F)F)CO1", "note": "[Example 338, (+)-(S)-4-(4-Bromo-2-trifluoromethyl-phenyl)-4,5-dihydro-oxazol-2-ylamine]", "Ki": 0.0031}
{"compound": "NC1=N[C@H](c2cc(Cl)c(Cl)cc2C(F)(F)F)CO1", "note": "[Example 243, (−)-(R)-4-(4,5-Dichloro-2-trifluoromethyl-phenyl)-4,5-dihydro-oxazol-2-ylamine]", "Ki": 0.0094}
{"compound": "NC1=N[C@@H](c2ccc(Cl)cc2)CO1", "note": "[Example 169, (S)-4-(4-Chloro-phenyl)-4,5-dihydro-oxazol-2-ylamine]", "Ki": 0.0014}
{"compound": "NC1=N[C@@H](CCc2ccc(Cl)cc2F)CO1", "note": "[Example 132, (S)-4-[2-(4-Chloro-2-fluoro-phenyl)-ethyl]-4,5-dihydro-oxazol-2-ylamine]", "Ki": 0.0007}
